In patent US20140341812A1, “BETA-AMYLOID PET IMAGING AGENTS” (The United States of America, as represented by the …, priority 2006, published 2014):

Target: T1, beta-amyloid plaques in AD brain tissue (Homo sapiens, UniProt P05067)
T1 construct: gauged from the concentration of Aβ1-40 and Aβ1-42 monomers; from tissue; host or cells: postmortem human AD brain grey matter; plaques isolated by SDS/sucrose centrifugation and collagenase/DNase digestion
Test: In vitro binding assay: competitive displacement of [3H]6-OH-BTA-1 from isolated human AD amyloid plaques
Details: [3H]6-OH-BTA-1 as reference radioligand; isolated human AD amyloid plaques; Table 4
Protocol: Isolation of human AD amyloid. Postmortem brain […] were obtained from a confirmed AD patient. Pre- and postmortem consent was obtained from next of kin, and brains were removed at autopsy, sectioned and frozen at −70° C. Bags of brain tissue were removed from the freezer to a −20° C. freezer one day before, and then placed on ice 3 h before the experiment. While working on ice, the brain tissue was cut into small sections, and meningies from outer layer of cortex and from fissures between the lobes of the gray matter was removed. After removing the white matter, the grey matter were chopped into small pieces and placed into plastic bags. The tissue was stored in −70° C. freezer for further use.
In a typical isolation, 60 g of brain tissue were used. Initially, an equal volume of 1% SDS was added to homogenize. More 1% SDS was added later until 200 mL. The mixture was vortexed, distributed evenly among 10 Beckman ultracentrifuge tubes, and centrifuged by a Coulter type 55.2 Ti ultracentrifuge rotor using RPM: 40,000; G force; 180,000; temp: 4° C.; time: 30 min. The collected bottom pellets were further homogenized and centrifuged twice more as described above using 50 mL and 20 mL of 1% SDS each, and finally in 20 mL 1.2 M sucrose. The supernatant along the top pellet was discarded. The pellets at the bottom were homogenized and centrifuged in 20 mL 1.9 M sucrose. The top pellets were collected using a cell scrapper, and the bottom pellets were discarded. The collected top pellets were homogenized and centrifuged using 20 mL deionized water. The bottom pellets were further homogenized and centrifuged using 1.3 M sucrose solution into one centrifuge tube. The bottom pellets were homogenized and centrifuged using 20 mL deionized water. The collected pellets were homogenized in 30 mL of 50 mM Tris-HCl, pH 8.0, 2 mM CaCl2. Collagenase CLS3 (120 mg) and DNAase I (10-15 mg) were added. The mixture was vortexed and incubated for 24-56 hrs at 37° C. in a water bath with shaking. After incubation, the suspension was filtered through 41 μm Milllpore filter paper. The collected filtrate was centrifuged and the bottom pellets were homogenized and centrifuged one more time using the Tris-HCl solution. The supernatant was discarded, and the pellets were homogenized and centrifuged using 10 mL 1.9 M sucrose. The top pellet and the 1.9M sucrose layer were transferred to a new tube (this is to remove heavy particles such as metals and salts). Deionized water (40 mL) was added. After homogenization and centrifugation, the collected pellets were put into 500 μL of deionized water to form a homogeneous suspension. It was stored in a refrigerator or freezer for further use.
The amyloid suspension prepared above was diluted by a factor of 40,000 to 50,000 in PBS, and 800 μL suspension was used in each tube. […] Cold 6-OH-BTA-1 or other displacer was dissolved in ethanol to result in a stock solution of 1×10^−3 M, which was further diluted using PBS or ethanol to result in solutions with concentrations ranging from 1×10^−5 to 10^−10 M, and 100 μL was used in each tube. After assembly, the tubes were vortexed, and incubated for 3 hrs at room temperature. After separation using a cell harvester, the filter paper (GF/B filter paper pretreated with 0.5% polyimine solution) was washed with 10% ethanol in PBS (3×3 mL). The filters were placed into 20 mL glass vials and 10 mL scintillation fluid each was added. After overnight incubation, the samples were counted. The data were analyzed using GraphPad Prism 4 or KaleidaGraph 3.6.
Isolated plaques were used in developing an in vitro binding assay. Tritiated-6-OH-BTA-1 was selected as the reference radioligand based on its use in human PET imaging and high affinity.^28 Displacement curves were created using non-radioactive 6-OH-BTA-1 and other novel ligands.

T1 sequence (P05067 672-713 limits assumed): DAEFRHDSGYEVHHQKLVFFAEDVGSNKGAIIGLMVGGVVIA
T1 sequence (P05067 672-711 limits assumed): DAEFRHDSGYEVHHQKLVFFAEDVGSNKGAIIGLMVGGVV

**Q.** For `CN(CCF)c1ccc(-c2cn3cc(I)ccc3n2)cc1` [Ligand L2, N-(2-fluoroethyl)-4-(6-iodo-H-imidazo[1,2-A]pyridin-2-yl)-N-methylbenzeneamine, reference compound], which Ki is on record?
**A.** 31 ± 5 nM

**Q.** Which Ki does the source give for `CN(CCCF)c1ccc(-c2cn3cc(I)ccc3n2)cc1` [Ligand L3, reference compound] here?
**A.** 41 ± 5 nM

**Q.** Which Ki does the source give for `CN(C)c1ccc(-c2cn3cc(Br)ccc3n2)cc1` [Ligand L4] here?
**A.** 5.9 ± 0.4 nM

**Q.** With `CN(C)c1ccc(-c2cn3cc(Cl)ccc3n2)cc1` [Ligand L5] as the molecule, how does the Ki read?
**A.** 24.2 ± 5.6 nM

**Q.** With `CN(C)c1ccc(-c2cn3cc(F)ccc3n2)cc1` [Ligand L6, 4-(6-fluoro-H-imidazo[1,2-a]pyridin-2-yl)-N,N-dimethylbenzenamine] as the molecule, how does the Ki read?
**A.** 13 ± 1.6 nM

**Q.** Which Ki does the source give for `CN(C)c1ccc(-c2cn3cc([N+](=O)[O-])ccc3n2)cc1` [Ligand L7, N,N-dimethyl-4-(6-nitro-H-imidazo[1,2-a]pyridin-2-yl)benzenamine] here?
**A.** 7.6 ± 0.7 nM

**Q.** Which Ki does the source give for `CN(C)c1ccc(-c2cn3cc(C#N)ccc3n2)cc1` [Ligand L8, 2-(4-(dimethylamino)phenyl)-H-imidazo[1,2-a]pyridine-6-carbonitrile] here?
**A.** 8.2 ± 1 nM

**Q.** Which Ki does the source give for `COc1ccc2nc(-c3ccc(N(C)C)cc3)cn2c1` [Ligand L9, 4-(6-methoxy-H-imidazo[1,2-a]pyridin-2-yl)-N,N-dlmethylbenzenamine] here?
**A.** 38.5 ± 5 nM

**Q.** Which Ki does the source give for `CN(C)c1ccc(-c2cn3cc(O)ccc3n2)cc1` [Ligand L12, 2-(4-(dimethylamino)phenyl)-H-imidazo[1,2-a]pyridin-6-ol] here?
**A.** 177 ± 31 nM

**Q.** Which Ki does the source give for `CN(C)c1ccc(-c2cc3c(I)cc(Br)cn3c2)cc1` [Ligand L13, 4-(6-bromo-8-iodoindolizin-2-yl)-N,N-dimethylbenzenamine] here?
**A.** 183 ± 61 nM

**Q.** Which Ki does the source give for `CN(C)c1ccc(-c2cc3c(C#N)cc(Br)cn3c2)cc1` [Ligand L14, 6-bromo-2-(4-(dimethylamino)phenyl)indolizine-8-carbonitrile] here?
**A.** > 180 nM

**Q.** For `CNc1ccc(-c2cn3cc(Br)ccc3n2)cc1Br` [Ligand L18, 2-bromo-4-(6-bromo-H-imidazo[1,2-a]pyridin-2-yl)-N-methylbenzenamine], which Ki is on record?
**A.** 7.4 ± 0.6 nM

**Q.** With `Cc1cc(-c2cn3cc(Br)ccc3n2)ccc1N` [Ligand L20, 4-(6-bromo-H-imidazo[1,2-a]pyridin-2-yl)-2-methylbenzenamine] as the molecule, how does the Ki read?
**A.** 658 ± 47 nM

**Q.** For `CNc1ccc(-c2cn3cc(SCC(N)=O)ccc3n2)cc1` [Ligand T1, 2-(2-(4(methylamino)pheny)-H-imidazo[1,2-a]pyridin-6-ylthio)acetamide], which Ki is on record?
**A.** 1840 ± 497 nM

**Q.** Which Ki does the source give for `CN(C)c1ccc(-c2cn3cc(SCC(N)=O)ccc3n2)cc1` [Ligand T2, 2-(2-(4-(dimethylamino)phenyl)-H-imidazo[1,2-a]pyridin-6-ylthio)acetamide] here?
**A.** 391 ± 76 nM

**Q.** Which Ki does the source give for `CNc1ccc(-c2cn3cc(SCCO)ccc3n2)cc1` [Ligand T3, 2-(2-(4-(methylamino)phenyl)-H-imidazo[1,2-a]pyridin-6-ylthio)ethanol] here?
**A.** 645 ± 75 nM

**Q.** For `CN(C)c1ccc(-c2cn3cc(SCCO)ccc3n2)cc1` [Ligand T4, 2-(2-(4-(dimethylamino)phenyl)-H-imidazo[1,2-a]pyridin-6-ylthio)ethanol], which Ki is on record?
**A.** 88 ± 6 nM

**Q.** With `COc1ccc(CSc2ccc3nc(-c4ccc(N(C)C)cc4)cn3c2)cc1` [Ligand T5, 4-(6-(4-methoxybenzylthio)-H-imidazo[1,2-a]pyridin-2-yl)-N,N-dimethylbenzenamine] as the molecule, how does the Ki read?
**A.** 8.3 ± 1.8 nM

**Q.** For `CSc1ccc2nc(-c3ccc(N(C)C)cc3)cn2c1` [Ligand T6, N,N-dimethyl-4-(6-(methylthio)-H-imidazo[1,2-a]pyridin-2-yl)benzenamine], which Ki is on record?
**A.** 7.9 ± 0.6 nM

**Q.** For `CCSc1ccc2nc(-c3ccc(N(C)C)cc3)cn2c1` [Ligand T7, 4-(6-(ethylthio)-H-imidazo[1,2-a]pyridin-2-yl)-N,N-dimethylbenzenamine], which Ki is on record?
**A.** 8.3 ± 0.5 nM

Same assay, conditions: [3H]6-OH-BTA-1 as reference radioligand; isolated human AD amyloid plaques; Table 5

**Q.** For `CN(C)c1ccc(-c2cn3cc(Cl)ncc3n2)cc1` [Ligand L21, 4-(6-chloroimidazo[1,2-a]pyrazin-2-yl)-N,N-dimethylbenzenamine], which Ki is on record?
**A.** 88 ± 22 nM

**Q.** With `CN(C)c1ccc(-c2cn3cc(Cl)cnc3n2)cc1` [Ligand L22, 4-(6-chloroimidazo[1,2-a]pyrimidin-2-yl)-N,N-dimethylbenzenamine] as the molecule, how does the Ki read?
**A.** 147 ± 20 nM

**Q.** With `CN(C)c1ccc(-c2nc3ccc(SCCO)cc3s2)cc1` [Ligand P1] as the molecule, how does the Ki read?
**A.** 5.7 ± 0.7 nM

Same assay, conditions: discussion of the Table 4 Ki values

**Q.** For `CN(C)c1ccc(-c2cn3cc(O)ccc3n2)cc1` [Ligand L12, 2-(4-(dimethylamino)phenyl)-H-imidazo[1,2-a]pyridin-6-ol], which “binding affinity (in words)” value is on record?
**A.** abolishes all binding affinity

**Q.** With `CN(C)c1ccc(-c2cc3c(C#N)cc(Br)cn3c2)cc1` [Ligand L14, 6-bromo-2-(4-(dimethylamino)phenyl)indolizine-8-carbonitrile] as the molecule, how does the “binding affinity (in words)” value read?
**A.** completely removes the binding affinity

Same assay, conditions: displacement of [3H]6-OH-BTA-1 from isolated amyloid plaques

**Q.** For `CNc1ccc(-c2nc3ccc(O)cc3s2)cc1` [PIB, 6-hydroxy-2-(4′-methylaminophenyl)benzothiazole, reference compound], which “displacement of reference radioligand” value is on record?
**A.** > 95%

Test system: not given
Test: not given
Details: not given

**Q.** For `CN(C)c1ccc(-c2cn3cc(Cl)ccc3n2)cc1` [Ligand L5], which melting point is on record?
**A.** 234 to 236 °C

**Q.** Which melting point does the source give for `CN(C)c1ccc(-c2cn3cc(C#N)ccc3n2)cc1` [Ligand L8, 2-(4-(dimethylamino)phenyl)-H-imidazo[1,2-a]pyridine-6-carbonitrile] here?
**A.** 269 to 271 °C

**Q.** For `CC(=O)N(C)c1ccc(-c2cc3ccc(Br)cn3c2)cc1C` [Ligand L16, N-(4-(6-bromoindolizin-2-yl)-2-methylphenyl)-N-methylacetamide], which melting point is on record?
**A.** 197 to 198 °C

**Q.** For `CCSc1ccc2nc(-c3ccc(N(C)C)cc3)cn2c1` [Ligand T7, 4-(6-(ethylthio)-H-imidazo[1,2-a]pyridin-2-yl)-N,N-dimethylbenzenamine], which melting point is on record?
**A.** 168 to 171 °C

Test system: not given
Test: not given
Details: after intravenous injection into rodent or monkey; reported in Cai et al., J. Med. Chem. 2004; cited from earlier work

**Q.** With `CN(CCF)c1ccc(-c2cn3cc(I)ccc3n2)cc1` [[^18F]FEM-IMPY, N-(2-fluoroethyl)-4-(6-iodo-H-imidazo[1,2-A]pyridin-2-yl)-N-methylbenzeneamine] as the molecule, how does the “SUV (standardized uptake value) in brain” value read?
**A.** about 160 % I.D.kg/g

**Q.** With `CN(CCC[18F])c1ccc(-c2cn3cc(I)ccc3n2)cc1` [[^18F]FPM-IMPY] as the molecule, how does the “SUV (standardized uptake value) in brain” value read?
**A.** about 160 % I.D.kg/g

Target: amyloid (Homo sapiens, UniProt P05067)
Test: not given
Details: PET, patients with AD vs healthy people; cited from earlier work

Sequence of amyloid (P05067 672-713 limits assumed): as the sequence (P05067 672-713 limits assumed) above
Sequence of amyloid (P05067 672-711 limits assumed): as the sequence (P05067 672-711 limits assumed) above

**Q.** For `CNc1ccc(-c2nc3ccc(O)cc3s2)cc1` [carbon-11-labelled-PIB, 6-hydroxy-2-(4′-methylaminophenyl)benzothiazole], which “binding in the brains of patients with AD compared with healthy people” value is on record?
**A.** more binding in the brains of patients with AD than in those of healthy people

**Q.** With `CC(=C(C#N)C#N)c1ccc2cc(N(C)CC[18F])ccc2c1` [fluorine-18-labelled-FDDNP, 2-(1-{6-[(2-[^18F]fluoroethyl)(methyl)amino]-2-naphthyl}ethylidene)malononitrile] as the molecule, how does the “binding in the brains of patients with AD compared with healthy people” value read?
**A.** more binding in the brains of patients with AD than in those of healthy people
